PubChem BioAssay AID1963962 (Molecular Pharmacology Branch, DTP, NCI, 2024)

Tested on: 967376-340-R-J2-PDC multicell spheroid viability
Experiment: Anticancer human tumor 967376-340-R-J2-PDC patient-derived colon adenocarcinoma cell line growth inhibition [PI3K]
Conditions: for IC50: curve of first compound; for viability, T/C: stronger effect = lower value
Summary of the method: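 Targeted small molecules plus PI3K inhibitors, half-log dose series from Cmax (default top 10 microM), were applied to heterotypic spheroids of cancer cells with HUVEC and MSCs. Viability indicated growth inhibition.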

[1] = second compound 0.0316 µM, first compound 0.000316 µM
[2] = second compound 0.0316 µM, first compound 0.001 µM
[3] = second compound 0.0316 µM, first compound 0.00316 µM
[4] = second compound 0.0316 µM, first compound 0.01 µM
[5] = second compound 0.0316 µM, first compound 0.0316 µM
[6] = second compound 0.0316 µM, first compound 0.1 µM
[7] = second compound 0.1 µM, first compound 0.000316 µM
[8] = second compound 0.1 µM, first compound 0.001 µM
[9] = second compound 0.1 µM, first compound 0.00316 µM
[10] = second compound 0.1 µM, first compound 0.01 µM
[11] = second compound 0.1 µM, first compound 0.0316 µM
[12] = second compound 0.1 µM, first compound 0.1 µM
[13] = second compound 0.316 µM, first compound 0.000316 µM
[14] = second compound 0.316 µM, first compound 0.001 µM
[15] = second compound 0.316 µM, first compound 0.00316 µM
[16] = second compound 0.316 µM, first compound 0.01 µM
[17] = second compound 0.316 µM, first compound 0.0316 µM
[18] = second compound 0.316 µM, first compound 0.1 µM
[19] = second compound 1 µM, first compound 0.000316 µM
[20] = second compound 1 µM, first compound 0.001 µM
[21] = second compound 1 µM, first compound 0.00316 µM
[22] = second compound 1 µM, first compound 0.01 µM
[23] = second compound 1 µM, first compound 0.0316 µM
[24] = second compound 1 µM, first compound 0.1 µM
[25] = second compound 3.16 µM, first compound 0.000316 µM
[26] = second compound 3.16 µM, first compound 0.001 µM
[27] = second compound 3.16 µM, first compound 0.00316 µM
[28] = second compound 3.16 µM, first compound 0.01 µM
[29] = second compound 3.16 µM, first compound 0.0316 µM
[30] = second compound 3.16 µM, first compound 0.1 µM
[31] = second compound 10 µM, first compound 0.000316 µM
[32] = second compound 10 µM, first compound 0.001 µM
[33] = second compound 10 µM, first compound 0.00316 µM
[34] = second compound 10 µM, first compound 0.01 µM
[35] = second compound 10 µM, first compound 0.0316 µM
[36] = second compound 10 µM, first compound 0.1 µM
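Also: spheroids exposed to agents for 7 days before read-out.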
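For viability, T/C in this document: luminescence used as surrogate of cell viability.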

Molecule `CC(=O)c1c(C)c2cnc(Nc3ccc(N4CCNCC4)cn3)nc2n(C2CCCC2)c1=O` + CC(Nc1ncnc2nc[nH]c12)c1cc2cccc(Cl)c2c(=O)n1-c1ccccc1 has an IC50 (second compound 0.0316 µM) greater than 0.1 µM, an IC50 (second compound 0.1 µM) greater than 0.1 µM and an IC50 (second compound 0.316 µM) greater than 0.1 µM. It also gave an IC50 (second compound 1 µM) greater than 0.1 µM, an IC50 (second compound 3.16 µM) greater than 0.1 µM and an IC50 (second compound 10 µM) greater than 0.1 µM. The viability, T/C [1] was 81.1%, the viability, T/C [2] was 101% and the viability, T/C [3] was 92.2%. The viability, T/C [4] was 92.7%, the viability, T/C [5] was 79.9% and the viability, T/C [6] was 82.6%. For the same molecule, the viability, T/C [7] was 114%, the viability, T/C [8] was 89.4% and the viability, T/C [9] was 101%. The viability, T/C [10] was 89.4%, the viability, T/C [11] was 84.4% and the viability, T/C [12] was 83.8%. For the same molecule, the viability, T/C [13] was 101%, the viability, T/C [14] was 96% and the viability, T/C [15] was 113%. For the same molecule, the viability, T/C [16] was 97%, the viability, T/C [17] was 79.3% and the viability, T/C [18] was 78.6%. For the same molecule, the viability, T/C [19] was 90%, the viability, T/C [20] was 103% and the viability, T/C [21] was 91%. It also gave a viability, T/C [22] of 80.3%, a viability, T/C [23] of 98.6% and a viability, T/C [24] of 88.2%. The viability, T/C [25] was 89.6%, the viability, T/C [26] was 109% and the viability, T/C [27] was 95.1%. The viability, T/C [28] was 90.3%, the viability, T/C [29] was 84.1% and the viability, T/C [30] was 63.9%. It also gave a viability, T/C [31] of 83.5%, a viability, T/C [32] of 89.5% and a viability, T/C [33] of 81.3%. It also gave a viability, T/C [34] of 88%, a viability, T/C [35] of 87.5% and a viability, T/C [36] of 86.9%.
Work on `CC(C)n1nc(-c2ccc3oc(N)nc3c2)c2c(N)ncnc21` + CC(Nc1ncnc2nc[nH]c12)c1cc2cccc(Cl)c2c(=O)n1-c1ccccc1 yielded an IC50 (second compound 0.0316 µM) greater than 0.1 µM, an IC50 (second compound 0.1 µM) greater than 0.1 µM and an IC50 (second compound 0.316 µM) greater than 0.1 µM. For the same molecule, the IC50 (second compound 1 µM) was greater than 0.1 µM, the IC50 (second compound 3.16 µM) was greater than 0.1 µM and the IC50 (second compound 10 µM) was greater than 0.1 µM. For the same molecule, the viability, T/C [1] was 109%, the viability, T/C [2] was 92.2% and the viability, T/C [3] was 96.6%. For the same molecule, the viability, T/C [4] was 98.6%, the viability, T/C [5] was 97.5% and the viability, T/C [6] was 59.1%. It also gave a viability, T/C [7] of 90.1%, a viability, T/C [8] of 94.5% and a viability, T/C [9] of 90.6%. The viability, T/C [10] was 103%, the viability, T/C [11] was 80.8% and the viability, T/C [12] was 69.9%. It also gave a viability, T/C [13] of 113%, a viability, T/C [14] of 104% and a viability, T/C [15] of 99.9%. For the same molecule, the viability, T/C [16] was 98.5%, the viability, T/C [17] was 77% and the viability, T/C [18] was 54.7%. For the same molecule, the viability, T/C [19] was 124%, the viability, T/C [20] was 97% and the viability, T/C [21] was 89.9%. For the same molecule, the viability, T/C [22] was 90.1%, the viability, T/C [23] was 71% and the viability, T/C [24] was 53%. For the same molecule, the viability, T/C [25] was 101%, the viability, T/C [26] was 94.3% and the viability, T/C [27] was 93.9%. The viability, T/C [28] was 80.4%, the viability, T/C [29] was 81.3% and the viability, T/C [30] was 62.2%. The viability, T/C [31] was 93%, the viability, T/C [32] was 81.4% and the viability, T/C [33] was 76.7%. For the same molecule, the viability, T/C [34] was 88%, the viability, T/C [35] was 73.3% and the viability, T/C [36] was 61.3%.
Work on `CCCS(=O)(=O)Nc1ccc(F)c(C(=O)c2c[nH]c3ncc(-c4ccc(Cl)cc4)cc23)c1F` + CC(Nc1ncnc2nc[nH]c12)c1cc2cccc(Cl)c2c(=O)n1-c1ccccc1 yielded an IC50 (second compound 0.0316 µM) greater than 10 µM, an IC50 (second compound 0.1 µM) greater than 10 µM and an IC50 (second compound 0.316 µM) greater than 10 µM. It also gave an IC50 (second compound 1 µM) greater than 10 µM, an IC50 (second compound 3.16 µM) greater than 10 µM and an IC50 (second compound 10 µM) greater than 10 µM. It also gave a viability, T/C [5] of 122%, a viability, T/C [6] of 125% and a viability, T/C (second compound 0.0316 µM, first compound 0.316 µM) of 109%. For the same molecule, the viability, T/C (second compound 0.0316 µM, first compound 1 µM) was 113%, the viability, T/C (second compound 0.0316 µM, first compound 3.16 µM) was 103% and the viability, T/C (second compound 0.0316 µM, first compound 10 µM) was 58.9%. For the same molecule, the viability, T/C [11] was 97.2%, the viability, T/C [12] was 106% and the viability, T/C (second compound 0.1 µM, first compound 0.316 µM) was 99.1%. For the same molecule, the viability, T/C (second compound 0.1 µM, first compound 1 µM) was 90.5%, the viability, T/C (second compound 0.1 µM, first compound 3.16 µM) was 92% and the viability, T/C (second compound 0.1 µM, first compound 10 µM) was 52.7%. The viability, T/C [17] was 103%, the viability, T/C [18] was 89.1% and the viability, T/C (second compound 0.316 µM, first compound 0.316 µM) was 96.6%. It also gave a viability, T/C (second compound 0.316 µM, first compound 1 µM) of 96.3%, a viability, T/C (second compound 0.316 µM, first compound 3.16 µM) of 109% and a viability, T/C (second compound 0.316 µM, first compound 10 µM) of 60.4%. It also gave a viability, T/C [23] of 98.2%, a viability, T/C [24] of 95.4% and a viability, T/C (second compound 1 µM, first compound 0.316 µM) of 105%. It also gave a viability, T/C (second compound 1 µM, first compound 1 µM) of 92.7%, a viability, T/C (second compound 1 µM, first compound 3.16 µM) of 110% and a viability, T/C (second compound 1 µM, first compound 10 µM) of 58.4%. The viability, T/C [29] was 119%, the viability, T/C [30] was 79.9% and the viability, T/C (second compound 3.16 µM, first compound 0.316 µM) was 92.2%. For the same molecule, the viability, T/C (second compound 3.16 µM, first compound 1 µM) was 111%, the viability, T/C (second compound 3.16 µM, first compound 3.16 µM) was 100% and the viability, T/C (second compound 3.16 µM, first compound 10 µM) was 74.9%. For the same molecule, the viability, T/C [35] was 84.2%, the viability, T/C [36] was 87.1% and the viability, T/C (second compound 10 µM, first compound 0.316 µM) was 80%. The viability, T/C (second compound 10 µM, first compound 1 µM) was 88.7%, the viability, T/C (second compound 10 µM, first compound 3.16 µM) was 98.7% and the viability, T/C (second compound 10 µM, first compound 10 µM) was 61.1%.
